Reference: patent US9539298B2, “Lissencephaly therapeutic agent” (OSAKA CITY UNIVERSITY, priority 2010, dated 2017)

Tested on: fibroblasts established from LIS1 heterozygous mice (MEF)
Assay: Change in intracellular protein localization by SNJ-1945 (immunocytochemistry)
Format: cell-based, mouse
Conditions: 200 μM, 2 hours
Method: A LIS1 gene hetero-deficient mice group and a wild-type mice (12.5- to 14.5-day-old embryos) group each consisting of five mice were prepared, and fibroblasts (MEF; mouse embryonic fibroblast) were established from each group in the same manner as above (more specifically, fibroblasts were established by grouping the same gene type). Using the cells, immunocytochemistry was performed as follows. The influence of SNJ-1945 on intracellular protein localization in each cell was analyzed. First, a slide glass (24×24 mm; Matsunami Glass Ind., Ltd.) washed beforehand with 0.1 N hydrochloric acid was placed on a 6-well plate (Nunc), and MEF cells were seeded in an amount of 1.0×10^5 cells per well in a D-MEM culture solution (containing 10% fetal bovine blood serum; Wako Pure Chemical Ind. Ltd.). Subsequently, the 6-well plate was cultured overnight at 37° C. under 5% CO2, and SNJ-1945 was added thereto so that the final concentration became 200 μM. The incubation was performed for another 2 hours under the same conditions.
As a control experiment, the same experiment was performed by adding 1% dimethylsulfoxide (DMSO). After washing with phosphate buffer (PBS), the MEF cells were immobilized using 4% paraformaldehyde (Wako, 162-16065) (at room temperature, for 15 minutes). […] After incubation, the cells were washed well with PBS, and embedded using glycerol (Merck) for fluorescence microscope observation. […]
After careful observation using a confocal laser microscope (TCS-SP5, Leica), the intracellular locations of the individual factors in MEF cells under varying conditions are classified into “cells clustered around the nucleus” and “cells distributed to the entire cytoplasm.” For each cell group, 10 samples, each of which consists of 10 arbitrarily extracted cells, i.e., 100 cells in total for each group, were evaluated, and the average value±standard deviation was calculated. […]

With `COCCOCCOC(=O)N[C@@H](CC(C)C)C(=O)N[C@@H](Cc1ccccc1)C(=O)C(=O)NC1CC1` [compound 17, ((1S)-1-((((1S)-1-Benzyl-2,3-dioxo-3-(cyclopropylamino)propyl)amino)carbonyl)-3-methylbutyl)carbamic acid 5-methoxy-3-oxapentyl ester] the “LIS1 amount around the centrosome (intracellular localization)” value (FIG. 2) was “the LIS1 amount can be recovered”, the “cytoplasmatic dynein amount / localization” value (FIG. 3) was “the cytoplasmatic dynein amount can also be recovered” and the β-COP distribution (FIG. 4) was “the distribution is normalized”.
